Test [1] deals with beta-TC6 cells. The experiment in a line: 2-NBDG glucose uptake by flow cytometry. The conditions noted are these: Mus musculus, Beta-TC6, 1 h, read-out: Ratio of 2-NBDG uptake.
Method: (§1) Furthermore, as internal controls, samples of glucose free media, respectively glucose free media with test compound, were tested. Subsequently, cells were washed, trypsinized and harvested in ice-cold PBS before centrifuged at 1.6 x10^3 rpm at 4°C. Cells were analyzed by flow cytometry (FACS Calibur, BD Bioscience, respectively a BD Accuri® C6 Flow Cytometer).
(§2) To investigate the impact of the Grk5 inhibitors on Glucose uptake, cells were cultured 1 h in glucose free media supplied with 100 µM 2-NBDG at 37 °C and 5 % (v/v) CO2. Furthermore, as internal controls, samples of glucose free media, respectively glucose free media with test compounds, were measured. Fluorescence was analyzed by flow cytometer (FACS Calibur, BD Bioscience, respectively a BD Accuri® C6 Flow Cytometer).
Test [2] relates to beta-TC6 cells. The experiment in a line: Insulin release in high glucose medium, rat/mouse insulin ELISA. Format: cell-based. The conditions noted are these: 2 h, high glucose (4.5 g/L).
Test [3] deals with beta-TC6 cells. As to the kind of experiment: Insulin HTRF assay, relative activity Ar normalized to sunitinib. Format: cell-based. The conditions noted are these: Mus musculus, normalized to positive control sunitinib (5 µM = 100%), Table 10. The method in brief:
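beta-TC6 cells (15k/well) were seeded for 24 or 48 h, washed and exposed to test compound or sunitinib (5 µM f.c.) in induction buffer with 0.5% DMSO for 2, 3 or 4 h at 37°C. Secreted insulin in the supernatant was measured by two-antibody HTRF after 120 min at RT. Ar = (V − 0% control)/(100% control − 0% control) × 100.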

In test [4] the test system is beta-TC6 cells. The experiment in a line: Insulin release in high glucose medium, rat/mouse insulin ELISA. The test is classed as cell-based. The conditions noted are these: for activation at 5 µM / fold induction at 5 µM: Mus musculus, Beta-TC6, 2 h; for fold induction at 5 µM: high glucose (4.5 g/L). The protocol: Cells were cultured overnight, washed with PBS and then treated with 5 µM of test compounds as well as non-inhibitor controls for 2 h in a high glucose (4.5 g/L) DMEM at 37°C and 5 % (v/v) CO2. Release of insulin was detected using a rat/mouse insulin ELISA.
After incubation, the supernatant of the beta-TC6 insulinoma cells was diluted 1:20, whereas the supernatants of the RIN-T2B-5AH were diluted 1:10. The insulin release was measured with rat/mouse insulin ELISA (Merck Millipore Darmstadt, Cat. # EZRMI-13K) by following the manufacture's protocol. The enzyme activity of the horseradish peroxidase of the immobilized biotinylated antibodies was monitored spectrophotometrically by the increased absorbency at 490 nm, and corrected by the absorbency at 610 nm.
Afterwards, the supernatant was analyzed for insulin using the rat/mouse insulin ELISA (Merck Millipore Darmstadt, Cat. # EZRMI-13K) by following the manufacture's protocol..
Cells were treated for 2 h in a high glucose (4.5 g/L) DMEM media at 37°C and 5 % (v/v) CO2. Insulin release was analyzed using the rat/mouse insulin ELISA.

A further test concerns C2C12 cells. The experiment in a line: 2-NBDG glucose uptake by flow cytometry. The conditions noted are these: for fold induction at 5 µM: Mus musculus, C2C12, 1 h, read-out: Ratio of 2-NBDG uptake.
Test [5] has as its system 3T3-L pre-adipocytes differentiated to matured adipocytes. The experiment in a line: Insulin dependence of 2-NBDG uptake in matured adipocytes. The test is classed as cell-based. The conditions noted are these: compound added beside 10 µg/ml insulin, 1 h, 100 µM 2-NBDG; Figure 12. How it is done: To investigate if the 2-NBDG uptake of the inventive compound inhibitors of Scyl1 and GRK5 are insulin dependent, 3T3-L pre-adipocytes were differentiated to matured adipocytes. Afterwards, cells were starved for 4 h before they were washed and glucose free media supplied with 100 µM 2-NBDG, in the presence and absence of 10 µg/ml insulin and either Cpd 10 (Scyl1) of Cpd 1 (Grk5) was added for 1 h at 37 °C. Furthermore, as internal controls, samples of glucose free media or glucose free media with compound were measured (data not shown). Fluorescence was analyzed by flow cytometer (FACS Calibur, BD Bioscience, respectively a BD Accuri® C6 Flow Cytometer). For evaluation, cells were gated using the side- and forward scatter SSC/FSC and quantified by excited at 488 and detected at 533 nm (FL1).

Another test relates to beta-TC6 cell system. As to the kind of experiment: Comparison of insulin release with commercially available inhibitors, mouse/rat insulin ELISA. Format: cell-based. The conditions noted are these: Mus musculus, Beta-TC6; 5µM, 2 h; DMSO = 0; Table 9. The protocol: Based on literature references, several commercially available inhibitors were compared with compounds according to the invention. […] Cells were cultured for 24 h before treated with the inventive compounds and control inhibitors for 2 h at 37 °C and 5 % (v/v) CO2. Insulin in the supernatant was detected by mouse/rat insulin ELISA.

Read-outs that look alike come from different tables or passages of the source.

Method for C2C12 cells: as §1, §2

Consider `COc1cc(-c2ccc3ncc(-c4cccnc4)n3n2)cc(OC)c1OC` [compound 10, 3-(3-pyridyl)-6-(3,4,5-trimethoxyphenyl)imidazo[1,2-b]pyridazine], for which the fold induction at 5 µM in the test with beta-TC6 cells [1] was 1.14; in the test on beta-TC6 cells [4] (0 µM = 1, Table 3) it was 3.04; in the test on C2C12 cells, 1.55. For the same compound, the fold induction at 2 µM in the test on beta-TC6 cells [2] (0 µM = 1, Table 3) amounted to 1.66. In the test on beta-TC6 cells [2] (0 µM = 1, Table 3), this compound registered a fold induction at 10 µM of 2.68. In the test on beta-TC6 cells [3], this compound displayed a maximal effect (Emax) of 20 to 50%. The “increase of insulin release” value in the test with beta-TC6 cells [4] (5 µM, 2 h, high glucose (4.5 g/L) DMEM, Example 4, Figure 2) worked out at 60.2 ± 8.9%. In addition, the activation at 5 µM with beta-TC6 cells [4] (high glucose (4.5 g/L) DMEM, Example 4, Figure 2, read-out: increase of insulin release) stood at 60.2 ± 8.9%; in the test on beta-TC6 cell system it was 89.8%. Further, the “additional (insulin independent) increase” value in test [5] is listed as 18.2 ± 3.5%.

For `NC(=O)c1ccc(-c2cnc3ccc(Cc4ccc(F)cc4)nn23)cc1` [compound 1, 4-[6-[(4-fluorophenyl)methyl]imidazo[1,2-b]pyridazin-3-yl]benzamide], the fold induction at 5 µM in the test with beta-TC6 cells [1] was found to be 1.57; in the test with beta-TC6 cells [4] (0 µM = 1, Table 7), 1.81; in the test with C2C12 cells it was 2.45. This compound also gave a fold induction at 2 µM in the test with beta-TC6 cells [2] (0 µM = 1, Table 7) of 1.24. Besides, the fold induction at 10 µM with beta-TC6 cells [2] (0 µM = 1, Table 7) is 2.03. In the test on beta-TC6 cells [3], this compound had a maximal effect (Emax) of 20 to 50%. The activation at 5 µM came out at 42.8 ± 6.8% with beta-TC6 cells [4] (high glucose (4.5 g/L) DMEM, Example 9, Figure 6, ± SEM, read-out: increase of insulin release) and 70.7% in the test with beta-TC6 cell system. Besides, the “uptake of 2-NBDG compared with negative control background” value with C2C12 cells (C2C12, 1 h compound treatment, Figure 10) is given as “significantly increased uptake of 2-NBDG”. The “additional (insulin independent) increase” value in test [5] amounted to 48.9 ± 7.2%.
